Data published in patent publication US12077503B2, “Substituted cyclic amides and their use as herbicides” (FMC CORPORATION, priority 2015, dated 2024).

Legend:
Format in all cases: in vivo
[1] = system: redroot pigweed (Amaranthus retroflexus); experiment: Test G Pre-Emergence Protocol; conditions: Amaranthus retroflexus, pre-emergence, 312 h, evaluated after 13 days; for pest or weed control at 15.625 g/ha: 15.625 g ai/ha; for pest or weed control at 15.625 g/ha / pest or weed control at 250 g/ha: read-out: Pigweed, Redroot damage rating (100=total damage to plant; 0=no damage to plant); for pest or weed control at 62.5 g/ha: 62.5 g ai/ha, 100=total damage to plant, 0=no damage to plant, read-out: plant damage rating, Pigweed, Redroot; for pest or weed control at 250 g/ha: 250 g ai/ha
Method in brief: (§1)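 Herbicidal effect was rated 13 days post-application on a scale where 100 equals total damage. Spraying took place the day after sowing, using 15.625, 62.5 or 250 g/ha of compound in a 50:50 acetone/water solution with 0.5% Tween 20.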

[2] = system: barnyardgrass (Echinochloa crus-galli); experiment: Test G Pre-Emergence Protocol; conditions: Echinochloa crus-galli, pre-emergence, 312 h, evaluated after 13 days; for pest or weed control at 15.625 g/ha: 15.625 g ai/ha, read-out: Barnyard grass damage rating (100=total damage to plant; 0=no damage to plant); for pest or weed control at 62.5 g/ha: 62.5 g ai/ha, 100=total damage to plant, 0=no damage to plant, read-out: plant damage rating, Barnyardgrass; for pest or weed control at 250 g/ha: 250 g ai/ha, read-out: Barnyardgrass damage rating (100=total damage to plant; 0=no damage to plant)
Method in brief: as §1

[3] = system: velvetleaf (Abutilon theophrasti); experiment: Test G Pre-Emergence Protocol; conditions: Abutilon theophrasti, pre-emergence, 312 h, evaluated after 13 days; for pest or weed control at 15.625 g/ha: 15.625 g ai/ha; for pest or weed control at 15.625 g/ha / pest or weed control at 250 g/ha: read-out: Velvetleaf damage rating (100=total damage to plant; 0=no damage to plant); for pest or weed control at 62.5 g/ha: 62.5 g ai/ha, 100=total damage to plant, 0=no damage to plant, read-out: plant damage rating, Velvetleaf; for pest or weed control at 250 g/ha: 250 g ai/ha
Method in brief: as §1

[4] = system: ivy-leaved morning glory (Ipomoea hederacea); experiment: Test G Pre-Emergence Protocol; conditions: Ipomoea, pre-emergence, 312 h, evaluated after 13 days; for pest or weed control at 15.625 g/ha: 15.625 g ai/ha, read-out: Morning-glory, Ivy-leaved damage rating (100=total damage to plant; 0=no damage to plant); for pest or weed control at 62.5 g/ha: 62.5 g ai/ha, 100=total damage to plant, 0=no damage to plant, read-out: plant damage rating, Morningglory, Ivy-leaved; for pest or weed control at 250 g/ha: 250 g ai/ha, read-out: Morningglory, Ivy-leaved damage rating (100=total damage to plant; 0=no damage to plant)
Method in brief: as §1

[5] = system: giant foxtail (Setaria faberi); experiment: Test G Pre-Emergence Protocol; conditions: Setaria faberi, pre-emergence, 312 h, evaluated after 13 days; for pest or weed control at 15.625 g/ha: 15.625 g ai/ha; for pest or weed control at 15.625 g/ha / pest or weed control at 250 g/ha: read-out: Foxtail, Giant damage rating (100=total damage to plant; 0=no damage to plant); for pest or weed control at 62.5 g/ha: 62.5 g ai/ha, 100=total damage to plant, 0=no damage to plant, read-out: plant damage rating, Foxtail, Giant; for pest or weed control at 250 g/ha: 250 g ai/ha
Method in brief: as §1

[6] = system: corn (Zea mays); experiment: Test G Pre-Emergence Protocol; conditions: Zea mays, pre-emergence, 312 h, evaluated after 13 days; for plant injury at 15.625 g/ha: 15.625 g ai/ha; for plant injury at 15.625 g/ha / plant injury at 250 g/ha: read-out: Corn damage rating (100=total damage to plant; 0=no damage to plant); for plant injury at 62.5 g/ha: 62.5 g ai/ha, 100=total damage to plant, 0=no damage to plant, read-out: plant damage rating, Corn; for plant injury at 250 g/ha: 250 g ai/ha
Method in brief: as §1

[7] = system: redroot pigweed (Amaranthus retroflexus); experiment: Test G Post-Emergence Protocol; conditions: Amaranthus retroflexus, post-emergence, 312 h; for pest or weed control at 15.625 g/ha: 15.625 g ai/ha, evaluated after 13 days (100=total damage to plant; 0=no damage to plant), read-out: Pigweed, Redroot damage rating; for pest or weed control at 62.5 g/ha: 62.5 g ai/ha, read-out: Pigweed, Redroot damage rating (100=total damage to plant; 0=no damage to plant); for pest or weed control at 62.5 g/ha / pest or weed control at 250 g/ha: evaluated after 13 days; for pest or weed control at 250 g/ha: 250 g ai/ha, read-out: damage to plant, Pigweed, Redroot (100=total damage to plant; 0=no damage to plant)
Method in brief: (§2)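 Seedlings grown 8 days in soil in a glasshouse (24/16 °C day/night, 14 h light, 65% humidity) were sprayed post-emergence with compound in acetone/water 50:50 plus 0.5% Tween 20 at 15.625, 62.5 or 250 g/ha. Damage was scored after 13 days on a 0–100 scale (100 = total damage).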

[8] = system: barnyardgrass (Echinochloa crus-galli); experiment: Test G Post-Emergence Protocol; conditions: Echinochloa crus-galli, post-emergence, 312 h; for pest or weed control at 15.625 g/ha: 15.625 g ai/ha, evaluated after 13 days (100=total damage to plant; 0=no damage to plant), read-out: Barnyardgrass damage rating; for pest or weed control at 62.5 g/ha: 62.5 g ai/ha, read-out: Barnyardgrass damage rating (100=total damage to plant; 0=no damage to plant); for pest or weed control at 62.5 g/ha / pest or weed control at 250 g/ha: evaluated after 13 days; for pest or weed control at 250 g/ha: 250 g ai/ha, read-out: damage to plant, Barnyardgrass (100=total damage to plant; 0=no damage to plant)
Method in brief: as §2

[9] = system: velvetleaf (Abutilon theophrasti); experiment: Test G Post-Emergence Protocol; conditions: Abutilon theophrasti, post-emergence, 312 h; for pest or weed control at 15.625 g/ha: 15.625 g ai/ha, evaluated after 13 days (100=total damage to plant; 0=no damage to plant), read-out: Velvetleaf damage rating; for pest or weed control at 62.5 g/ha: 62.5 g ai/ha, read-out: Velvetleaf damage rating (100=total damage to plant; 0=no damage to plant); for pest or weed control at 62.5 g/ha / pest or weed control at 250 g/ha: evaluated after 13 days; for pest or weed control at 250 g/ha: 250 g ai/ha, read-out: damage to plant, Velvetleaf (100=total damage to plant; 0=no damage to plant)
Method in brief: as §2

[10] = system: ivy-leaved morning glory (Ipomoea hederacea); experiment: Test G Post-Emergence Protocol; conditions: Ipomoea, post-emergence, 312 h; for pest or weed control at 15.625 g/ha: 15.625 g ai/ha, evaluated after 13 days (100=total damage to plant; 0=no damage to plant), read-out: Morningglory, Ivy-leaved damage rating; for pest or weed control at 62.5 g/ha: 62.5 g ai/ha, read-out: Morningglory, Ivy-leaved damage rating (100=total damage to plant; 0=no damage to plant); for pest or weed control at 62.5 g/ha / pest or weed control at 250 g/ha: evaluated after 13 days; for pest or weed control at 250 g/ha: 250 g ai/ha, read-out: damage to plant, Morningglory, Ivy-leaved (100=total damage to plant; 0=no damage to plant)
Method in brief: as §2

[11] = system: giant foxtail (Setaria faberi); experiment: Test G Post-Emergence Protocol; conditions: Setaria faberi, post-emergence, 312 h; for pest or weed control at 15.625 g/ha: 15.625 g ai/ha, evaluated after 13 days (100=total damage to plant; 0=no damage to plant), read-out: Foxtail, Giant damage rating; for pest or weed control at 62.5 g/ha: 62.5 g ai/ha, read-out: Foxtail, Giant damage rating (100=total damage to plant; 0=no damage to plant); for pest or weed control at 62.5 g/ha / pest or weed control at 250 g/ha: evaluated after 13 days; for pest or weed control at 250 g/ha: 250 g ai/ha, read-out: damage to plant, Foxtail, Giant (100=total damage to plant; 0=no damage to plant)
Method in brief: as §2

[12] = system: corn (Zea mays); experiment: Test G Post-Emergence Protocol; conditions: Zea mays, post-emergence, 312 h; for plant injury at 15.625 g/ha: 15.625 g ai/ha, evaluated after 13 days (100=total damage to plant; 0=no damage to plant), read-out: Corn damage rating; for plant injury at 62.5 g/ha: 62.5 g ai/ha, read-out: Corn damage rating (100=total damage to plant; 0=no damage to plant); for plant injury at 62.5 g/ha / plant injury at 250 g/ha: evaluated after 13 days; for plant injury at 250 g/ha: 250 g ai/ha, read-out: damage to plant, Corn (100=total damage to plant; 0=no damage to plant)
Method in brief: as §2

Row | SMILES | pest or weed control at 15.625 g/ha [1] [%] | pest or weed control at 62.5 g/ha [1] [%] | pest or weed control at 250 g/ha [1] [%] | pest or weed control at 15.625 g/ha [2] [%] | pest or weed control at 62.5 g/ha [2] [%] | pest or weed control at 250 g/ha [2] [%] | pest or weed control at 15.625 g/ha [3] [%] | pest or weed control at 62.5 g/ha [3] [%] | pest or weed control at 250 g/ha [3] [%] | pest or weed control at 15.625 g/ha [4] [%] | pest or weed control at 62.5 g/ha [4] [%] | pest or weed control at 250 g/ha [4] [%] | pest or weed control at 15.625 g/ha [5] [%] | pest or weed control at 62.5 g/ha [5] [%] | pest or weed control at 250 g/ha [5] [%] | plant injury at 15.625 g/ha [6] [%] | plant injury at 62.5 g/ha [6] [%] | plant injury at 250 g/ha [6] [%] | pest or weed control at 15.625 g/ha [7] [%] | pest or weed control at 62.5 g/ha [7] [%] | other results
1 | CN1C[C@@H](c2ccc(C(F)(F)F)cc2)[C@H](C(=O)Nc2nccs2)C1=O (racemic) [Compound 1554] | 0 | 0 | 30 | 0 | 0 | 10 | 0 | 0 | 0 | 0 | 0 | 0 | 0 | 0 | 20 | 0 | 0 | 0 | 0 | 0 | pest or weed control at 250 g/ha [7]: 0%; pest or weed control at 15.625 g/ha [8]: 0%; pest or weed control at 62.5 g/ha [8]: 0%; pest or weed control at 250 g/ha [8]: 0%; pest or weed control at 15.625 g/ha [9]: 0%; pest or weed control at 62.5 g/ha [9]: 0%; pest or weed control at 250 g/ha [9]: 0%; pest or weed control at 15.625 g/ha [10]: 0%; pest or weed control at 62.5 g/ha [10]: 0%; pest or weed control at 250 g/ha [10]: 0%; pest or weed control at 15.625 g/ha [11]: 0%; pest or weed control at 62.5 g/ha [11]: 0%; pest or weed control at 250 g/ha [11]: 0%; plant injury at 15.625 g/ha [12]: 0%; plant injury at 62.5 g/ha [12]: 0%; plant injury at 250 g/ha [12]: 0%
2 | Cc1cc(C(F)(F)F)ccc1[C@@H]1CN(C)C(=O)[C@H]1C(=O)Nc1ccccc1F (racemic) [Compound 1415] | 10 | 0 | 10 | 10 | 50 | 70 | 0 | 0 | 0 | 0 | 0 | 0 | 10 | 70 | 80 | 0 | 0 | 0 | 10 | 10 | pest or weed control at 250 g/ha [7]: 30%; pest or weed control at 15.625 g/ha [8]: 20%; pest or weed control at 62.5 g/ha [8]: 30%; pest or weed control at 250 g/ha [8]: 60%; pest or weed control at 15.625 g/ha [9]: 10%; pest or weed control at 62.5 g/ha [9]: 0%; pest or weed control at 250 g/ha [9]: 20%; pest or weed control at 15.625 g/ha [10]: 10%; pest or weed control at 62.5 g/ha [10]: 10%; pest or weed control at 250 g/ha [10]: 20%; pest or weed control at 15.625 g/ha [11]: 20%; pest or weed control at 62.5 g/ha [11]: 60%; pest or weed control at 250 g/ha [11]: 70%; plant injury at 15.625 g/ha [12]: 20%; plant injury at 62.5 g/ha [12]: 10%; plant injury at 250 g/ha [12]: 20%
